Assay results as given in the CheMixHub ionic liquid set.

Experiment: xn = mol fraction of the nth substance listed

CCCCCCCCCCCCCC[P+](CCCCCC)(CCCCCC)CCCCCC.Cc1ncc([N+](=O)[O-])[n-]1 + COCCOCCOCCOCCOC
viscosity [mPa·s], 100 kPa
Settings	278.15 K	283.15 K	288.15 K	293.15 K	298.15 K	303.15 K	308.15 K	313.15 K	318.15 K	323.15 K
x2 = 0.151	2535	1685	1140	791	563	411	306	232	179	141
x2 = 0.399	595	425	308	228	173	134	106	85	69	57

CCCCC[N+](CCCCC)(CCCCC)CCCCC.[Br-] + CCCCCCCCCCCC[N+](C)(C)C.[Br-] + O
viscosity [mPa·s], 100 kPa
Settings	x2 = 5.425e-05, x1 = 0.0001802	x2 = 0.0001085, x1 = 0.0001801	x2 = 0.0001627, x1 = 0.0001801	x2 = 0.000217, x1 = 0.0001801	x2 = 0.0002712, x1 = 0.0001801	x2 = 0.0003254, x1 = 0.0001801	x2 = 0.0003796, x1 = 0.0001801	x2 = 0.0004339, x1 = 0.0001801	x2 = 0.0004881, x1 = 0.0001801	x2 = 0.0005422, x1 = 0.0001801
293.15 K	1.057	1.059	1.06	1.061	1.062	1.062	1.063	1.063	1.063	1.064
298.15 K	0.943	0.944	0.945	0.946	0.948	0.949	0.95	0.951	0.951	0.953
303.15 K	0.825	0.826	0.826	0.827	0.827	0.827	0.828	0.828	0.828	0.829
308.15 K	0.745	0.746	0.746	0.746	0.747	0.747	0.747	0.748	0.748	0.749
313.15 K	0.679	0.68	0.681	0.681	0.682	0.682	0.682	0.682	0.683	0.683
318.15 K	0.624	0.625	0.625	0.625	0.626	0.626	0.626	0.626	0.626	0.627

Cc1n(S(=O)(=O)O)cc[n+]1S(=O)(=O)O.O=C([O-])C(F)(F)F + CO
Settings	electrical conductivity [S/m]
298.15 K, 101 kPa, x1 = 0.0104	1.52

CC[n+]1ccn(C)c1.O=S(=O)([O-])C(F)(F)F + O=S(=O)([N-]S(=O)(=O)C(F)(F)F)C(F)(F)F.[Li+]
101 kPa, x1 = 1
Settings	electrical conductivity [S/m]
288.15 K	0.605
298.15 K	0.859
333.15 K	2.24

CCCCCCCCCCCCCC[P+](CCCCCC)(CCCCCC)CCCCCC.N#C[N-]C#N + O
viscosity [mPa·s], 100 kPa
Settings	298.15 K	303.15 K
x1 = 0.5511	183	–
x1 = 0.8444	440	328

CC[n+]1ccn(C)c1.O=S(=O)([O-])C(F)(F)F + CS(C)=O
100 kPa
Settings	viscosity [mPa·s]
298.15 K, x1 = 0.1068	3.7
298.15 K, x1 = 0.3077	7.9
318.15 K, x1 = 0.4023	7
323.15 K, x1 = 0.4933	8.2

CCCCCC[n+]1ccn(C)c1.N[C@@H](CCC(=O)O)C(=O)[O-] + O
298.15 K, 100 kPa
Settings	electrical conductivity [S/m]
x1 = 0.001278	0.2317
x1 = 0.002014	0.338
x1 = 0.00309	0.46
x1 = 0.004145	0.577
x1 = 0.004824	0.676
x1 = 0.00584	0.783
x1 = 0.007281	0.923
x1 = 0.008947	1.011
x1 = 0.01064	1.107
x1 = 0.01274	1.2
x1 = 0.01517	1.26
x1 = 0.01798	1.28

CC[N+](CC)(CC)CC.O=S(=O)([O-])C(F)(F)F + CC#N
100 kPa
Settings	electrical conductivity [S/m]
293.15 K, x1 = 0.02	2.56
293.15 K, x1 = 0.05	4.03
298.15 K, x1 = 0.0997	4.87
308.15 K, x1 = 0.1498	4.75
318.15 K, x1 = 0.05	4.94
318.15 K, x1 = 0.2995	3.89
323.15 K, x1 = 0.2995	4.16
333.15 K, x1 = 0.2	5.43
333.15 K, x1 = 0.25	4.96
333.15 K, x1 = 0.2995	4.73
348.15 K, x1 = 0.02	3.67
348.15 K, x1 = 0.08	6.89
348.15 K, x1 = 0.1498	6.97
